{"source": "patent US9532569B2", "about": "(INSTITUT NATIONAL DE LA RECHERCHE AGRONOMIQUE, priority 2012, dated 2017)", "key": {"pea mutant rms1 [1]": {"system": "pea mutant rms1", "assay": "Inhibition of branching in the pea, application directly on the axillary bud", "type": "in vivo, Pisum sativum L.", "conditions": "for activity (length of bud/branch at node 3, 8 days after treatment at node 3): mean of 24 plants", "procedure": "Generally, in the pea, the first two scales are considered to be the first two nodes, the cotyledonary node being node 0.\nThe rms1 mutant is an “SMS” signal biosynthesis mutant, repressing branching of the plant.\nTests for activity on the inhibition of branching were carried out in the following way.\nThe strigolactone-deficient rms1 (ccd8) pea mutants described in Beveridge et al., 1997, were used for the test (M3T884 line derived from the Térèse variety).\nThe activity of the compounds (IIa), (II′d) and (II′e) in accordance with the invention and of the comparative compound GR24 was evaluated at respective doses of 10 nM, 100 nM and 1 μM, by treatment at node 3. […]\n24 plants were sown per treatment. 8 days after sowing, the treatment was carried out on the axillary bud at node 3, by application of 10 μl of each solution to be tested, directly on the bud, by means of a micropipette. The lateral outgrowths at nodes 1 and 2 were removed in order to encourage the growth of the axillary buds at the higher nodes. […]\nThe activity of the compounds (IIa), (IIb), (IIc), (II′d), (II′e) and (II′f) in accordance with the invention was evaluated at respective doses of 100 nM and 1 μM, by treatment at node 3.\nFor this, solutions containing each compound to be tested, in 1% acetone, 4% propylene glycol 1450 and 50% ethanol, were used.\nThe activity of the compounds (IIa), (IIIa), (IIIb) and (IIIc) in accordance with the invention, and also of GR24 as comparative compound, was evaluated at respective doses of 100 nM and 1 μM, by treatment at node 3, according to the protocol described above with reference to experiment 2.\nA sample consisting only of the solvent, and without active compound, was also tested as negative control, termed “CTL 0”.\nIn this experiment, the activity of the compound (IIIa) in accordance with the invention, and also of GR24 as comparative compound, was evaluated at respective doses of 1 nM, 10 nM, 100 nM and 1 μM, by treatment at node 3, according to the protocol described above with reference to experiment 2, for doses of 10 nM, 100 nM and 1 μM of compounds.\nA sample consisting only of the solvent, and without active compound (“CTL 0”) was also tested as a negative control. A nontreated (“NT”) control was also carried out.\n(§1) A dose-response test for evaluating the activity of the compounds by deposition at node 3 was carried out according to the protocol described above with reference to experiment 2, for the compound in accordance with the invention (IIa) and for the comparative compounds GR24, Comp. 3 and Comp. 4. Concentrations of 10 nM, 100 nM and 1 μM were tested.\nA sample consisting only of the solvent, and without active compound (“CTL 0”), was also tested as a negative control. A nontreated (“NT”) control was also carried out.\nas §1, with “Comp. 5” for “Comp. 3”, “Comp. 6.” for “Comp. 4.”, “10 nM and” for “10 nM,”, “nM” for “nM and 1 μM”, “tested. […]” for “tested.”\nThe sprouting of the axillary buds at node 4 was measured 8 days after the treatment by means of a digital sliding caliper.\nThe activity of the compound (IIIa) in accordance with the invention on bud growth at node 3 was evaluated at a dose of 1000 nM by treatment at node 3. The GR24 compound was tested at the same concentration as comparative compound. […]"}, "pea mutant rms1 [2]": {"system": "pea mutant rms1", "assay": "Inhibition of branching in the pea, application directly on the axillary bud", "type": "in vivo, Pisum sativum L.", "conditions": "Experiment 7, FIG. 9; 0.1 nM, 1 nM, 10 nM and 100 nM"}}, "data": [{"molecule": "CC1=C(C)C(Sc2ccc(Cl)cc2)OC1=O", "note": "(stereo not drawn) [Compound (IIa), 5-((4-chlorophenyl)thio)-3,4-dimethylfuran-2(5H)-one]", "values": [{"measurement": "inhibitory activity on bud growth (length of bud/branch at node 3, 8 days after treatment at node 3)", "setting": "pea mutant rms1 [1]; Experiment 1, FIG. 3, 10 nM, 100 nM, 1 μM, at the highest concentrations", "result": "inhibitory activity on bud growth which is greater than that of the comparative compound GR24"}, {"measurement": "inhibitory activity on bud growth (length of bud/branch at node 3, 8 days after treatment at node 3)", "setting": "pea mutant rms1 [1]; Experiment 2, FIG. 4, 100 nM and 1 μM", "result": "most active"}, {"measurement": "bud growth inhibition (length of bud/branch at node 3, 8 days after treatment at node 3)", "setting": "pea mutant rms1 [1]; Experiment 3, FIG. 5, 100 nM and 1 μM", "result": "activity similar to that of the comparative compound GR24"}, {"measurement": "activity (length of bud/branch at node 3, 8 days after treatment at node 3)", "setting": "pea mutant rms1 [1]; Experiment 5, FIG. 7, 10 nM, 100 nM and 1 μM", "result": "activity which is greater than the comparative compounds provided by the prior art, Comp. 3 and Comp. 4, this being at all the doses tested"}, {"measurement": "activity (length of bud/branch at node 3, 8 days after treatment at node 3)", "setting": "pea mutant rms1 [1]; Experiment 6, FIG. 8, 10 nM and 100 nM", "result": "activity which is greater than the comparative compounds provided by the prior art, Comp. 5 and Comp. 6, this being at all the doses tested"}, {"measurement": "inhibitory activity on bud growth at node 4 (length of bud/branch 8 days after treatment at node 4)", "setting": "pea mutant rms1 [2]", "result": "equivalent to that of GR24 at the strongest concentrations, and slightly better at the lowest concentration of 0.1 nM"}]}]}
